Each molecule was assayed against wild-type un-phosphorylated FGFR3 protein (Homo sapiens, UniProt P22607) (assay: FGFR Enzymatic Assay (FRET detection of peptide phosphorylation)). Settings: pre-incubated for 4 hours, read-out: FGFR3_Ki.
wild-type un-phosphorylated FGFR3 protein, sequence (P22607 23-806): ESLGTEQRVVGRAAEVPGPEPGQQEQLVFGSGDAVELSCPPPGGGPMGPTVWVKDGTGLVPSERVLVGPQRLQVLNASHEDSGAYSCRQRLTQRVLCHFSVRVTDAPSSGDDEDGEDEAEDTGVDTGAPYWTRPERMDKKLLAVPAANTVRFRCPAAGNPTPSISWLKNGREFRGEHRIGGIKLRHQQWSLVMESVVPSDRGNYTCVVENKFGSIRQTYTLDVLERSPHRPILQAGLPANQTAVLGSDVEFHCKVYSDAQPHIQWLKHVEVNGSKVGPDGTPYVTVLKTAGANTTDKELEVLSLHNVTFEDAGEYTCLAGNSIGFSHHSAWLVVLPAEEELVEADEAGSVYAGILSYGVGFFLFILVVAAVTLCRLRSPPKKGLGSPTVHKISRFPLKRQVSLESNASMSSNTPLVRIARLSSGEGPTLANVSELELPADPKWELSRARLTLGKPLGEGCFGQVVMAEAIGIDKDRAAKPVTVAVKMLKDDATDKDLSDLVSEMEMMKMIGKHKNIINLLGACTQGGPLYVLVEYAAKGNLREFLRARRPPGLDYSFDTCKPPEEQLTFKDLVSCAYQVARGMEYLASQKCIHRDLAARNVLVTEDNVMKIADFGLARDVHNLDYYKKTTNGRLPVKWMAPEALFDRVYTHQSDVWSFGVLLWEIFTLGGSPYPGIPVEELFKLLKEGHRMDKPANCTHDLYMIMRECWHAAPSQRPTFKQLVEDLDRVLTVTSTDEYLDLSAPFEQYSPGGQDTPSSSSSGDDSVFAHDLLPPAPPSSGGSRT
Format: biochemical
Protocol: The inhibitor potency of the exemplified compounds was determined in an enzyme discontinuous assay that measures peptide phosphorylation using FRET measurements to detect product formation. Inhibitors were serially diluted in DMSO and a volume of 0.2 μL was transferred to the wells of a 384-well plate. A 5 μL/well volume of enzyme isoforms of FGFR (−1, −2, −3 wild-type and mutant isoforms, −4) including phosphorylated and un-phosphorylated proteins diluted in assay buffer (50 mM HEPES, 10 mM MgCl2, 1 mM EGTA, 0.01% Tween-20, 5 mM DTT, pH 7.5) was added to the plate and pre-incubated with inhibitor for 5 to 15 minutes at ambient temperature. Appropriate controls (enzyme blank and enzyme with no inhibitor) were included on the plate. […] The ATP Km values were pre-determined in a separate series of experiments. The reaction plate was incubated at 25° C. for 1 hr and the reactions were ended with the addition of 5 μL/well of quench solution (50 mM Tris, 150 mM NaCl, 0.5 mg/mL BSA, pH 7.8; 45 mM EDTA, 600 nM staurosporin, with Perkin Elmer Lance Reagents at 3.75 nM Eu-antibody PY20 and 180 nM APC-Streptavidin). The plate was allowed to equilibrate for ˜10 minutes at ambient temperature before scanning on a PheraStar plate reader (BMG Labtech) instrument.
Either GraphPad prism or XLfit was used to analyze the data. The IC50 values were derived by fitting the data to a four parameter logistic equation producing a sigmoidal dose-response curve with a variable Hill coefficient. Prism equation: Y=Bottom+(Top−Bottom)/(1+10^((LogIC50−X)*Hill slope)); XLfit equation: Y=(A+((B−A)/(1+((X/C)^D)))) where X is the logarithm of inhibitor concentration and Y is the response.
The data in Table 1 was measured in wild-type un-phosphorylated FGFR3 protein.
Work on CN(C)C(=O)N1CCC(n2cc(-c3cnc4ccn5cc(-c6c(Cl)cccc6Cl)nc5c4c3)cn2)C1 (stereo not shown) [Example 50, 3-(4-(2-(2,6-Dichlorophenyl)imidazo[2,1-f][1,6]naphthyridin-9-yl)-1H-pyrazol-1-yl)-N,N-dimethylpyrrolidine-1-carboxamide] yielded a Ki of under 10 nM. With COc1cc(OC)cc(-c2c(-c3ccccc3Cl)nc3c4cc(-c5cnn(C)c5)cnc4ccn23)c1 [Example 4, 2-(2-Chlorophenyl)-3-(3,5-dimethoxyphenyl)-9-(1-methyl-1H-pyrazol-4-yl)imidazo[2,1-f][1,6]naphthyridine] the Ki was under 10 nM. Work on N#CCn1cc(-c2cnc3ccn4c(CO)c(-c5c(Cl)cccc5Cl)nc4c3c2)cn1 [Example 77, 2-(4-(2-(2,6-Dichlorophenyl)-3-(hydroxymethyl)imidazo[2,1-f][1,6]naphthyridin-9-yl)-1H-pyrazol-1-yl)acetonitrile] yielded a Ki of under 10 nM. CC(=O)N1CC2(CCC(n3cc(-c4cnc5ccn6cc(-c7c(Cl)cccc7Cl)nc6c5c4)cn3)CC2)C1 [Example 46, 1-(7-(4-(2-(2,6-Dichlorophenyl)imidazo[2,1-f][1,6]naphthyridin-9-yl)-1H-pyrazol-1-yl)-2-azaspiro[3.5]nonan-2-yl)ethan-1-one] showed a Ki of under 10 nM. In the case of N#CCCn1cc(-c2cnc3ccn4c(CO)c(-c5c(Cl)cccc5Cl)nc4c3c2)cn1 [Example 75, 3-(4-(2-(2,6-Dichlorophenyl)-3-(hydroxymethyl)imidazo[2,1-f][1,6]naphthyridin-9-yl)-1H-pyrazol-1-yl)propanenitrile], the Ki is reported as under 10 nM. O=C(CO)N1CC[C@H](n2cc(-c3cnc4ccn5c(Br)c(-c6c(F)cccc6Cl)nc5c4c3)cn2)C1 [Example 66, (S)-1-(3-(4-(3-Bromo-2-(2-chloro-6-fluorophenyl)imidazo[2,1-f][1,6]naphthyridin-9-yl)-1H-pyrazol-1-yl)pyrrolidin-1-yl)-2-hydroxyethan-1-one] gave a Ki of under 10 nM. CN(C)CCn1cc(-c2cnc3ccn4c(CO)c(-c5c(Cl)cccc5Cl)nc4c3c2)cn1 [Example 72, (2-(2,6-Dichlorophenyl)-9-(1-(2-(dimethylamino)ethyl)-1H-pyrazol-4-yl)imidazo[2,1-f][1,6]naphthyridin-3-yl)methanol] was tested, and the Ki was under 10 nM. Cc1c(-c2c(Cl)cccc2Cl)nc2c3cc(-c4cnn(C5CCOCC5)c4)cnc3ccn12 [Example 47, 2-(2,6-Dichlorophenyl)-3-methyl-9-(1-(tetrahydro-2H-pyran-4-yl)-1H-pyrazol-4-yl)imidazo[2,1-f][1,6]naphthyridine] showed a Ki of under 10 nM. With Cc1c(-c2c(Cl)cccc2C(F)(F)F)nc2c3cc(-c4cnn([C@H]5CCN(C(=O)CO)C5)c4)cnc3ccn12 [Example 25, (S)-1-(3-(4-(2-(2-Chloro-6-(trifluoromethyl)phenyl)-3-methylimidazo[2,1-f][1,6]naphthyridin-9-yl)-1H-pyrazol-1-yl)pyrrolidin-1-yl)-2-hydroxyethan-1-one] the Ki was under 10 nM. Work on Cc1c(-c2c(Cl)cccc2Cl)nc2c3cc(-c4cnn(C5CN(C(=O)Cn6ccnc6)C5)c4)cnc3ccn12 [Example 38, 1-(3-(4-(2-(2,6-Dichlorophenyl)-3-methylimidazo[2,1-f][1,6]naphthyridin-9-yl)-1H-pyrazol-1-yl)azetidin-1-yl)-2-(1H-imidazol-1-yl)ethan-1-one] yielded a Ki of under 10 nM. Work on CN(C)C(=O)N[C@H]1CC[C@H](n2cc(-c3cnc4ccn5cc(-c6c(Cl)cccc6Cl)nc5c4c3)cn2)CC1 [Example 45, 3-((1r,4r)-4-(4-(2-(2,6-Dichlorophenyl)imidazo[2,1-f][1,6]naphthyridin-9-yl)-1H-pyrazol-1-yl)cyclohexyl)-1,1-dimethylurea] yielded a Ki of under 10 nM. Cn1cc(-c2cnc3ccn4c(C5=CCCC5)c(-c5ccccc5Cl)nc4c3c2)cn1 [Example 2, 2-(2-Chlorophenyl)-3-(cyclopent-1-en-1-yl)-9-(1-methyl-1H-pyrazol-4-yl)imidazo[2,1-f][1,6]naphthyridine] gave a Ki of 100 to 400 nM. In the case of O=C(O)c1ccc(Cn2cc(-c3cnc4ccn5cc(-c6c(Cl)cccc6Cl)nc5c4c3)cn2)cc1F [Example 42, 4-((4-(2-(2,6-Dichlorophenyl)imidazo[2,1-f][1,6]naphthyridin-9-yl)-1H-pyrazol-1-yl)methyl)-2-fluorobenzoic acid], the Ki is reported as under 10 nM. Cc1ccoc1-c1nc2c3nc(-c4cnn(C)c4)cnc3ccc2n1C [Example 20, 3-Methyl-8-(1-methyl-1H-pyrazol-4-yl)-2-(3-methylfuran-2-yl)-3H-imidazo[4,5-f]quinoxaline] was tested, and the Ki was 100 to 400 nM. CC(O)c1c(-c2c(Cl)cccc2Cl)nc2c3cc(-c4cnn([C@H]5CCN(C(=O)CO)C5)c4)cnc3ccn12 (stereo partly drawn) [Example 58, 1-((3S)-3-(4-(2-(2,6-dichlorophenyl)-3-(1-hydroxyethyl)imidazo[2,1-f][1,6]naphthyridin-9-yl)-1H-pyrazol-1-yl)pyrrolidin-1-yl)-2-hydroxyethan-1-one] showed a Ki of under 10 nM. Cc1c(-c2c(Cl)cccc2Cl)nc2c3cc(-c4cnn([C@H]5CCN(C(=O)CO)C5)c4)cnc3ccn12 [Example 53, (S)-1-(3-(4-(2-(2,6-Dichlorophenyl)-3-methylimidazo[2,1-f][1,6]naphthyridin-9-yl)-1H-pyrazol-1-yl)pyrrolidin-1-yl)-2-hydroxyethan-1-one] was tested, and the Ki was under 10 nM. In the case of Cc1cccc(C)c1-c1nc2c3cc(-c4cnn([C@H]5CCN(C(=O)CO)C5)c4)cnc3ccn2c1C [Example 26, (S)-1-(3-(4-(2-(2,6-Dimethylphenyl)-3-methylimidazo[2,1-f][1,6]naphthyridin-9-yl)-1H-pyrazol-1-yl)pyrrolidin-1-yl)-2-hydroxyethan-1-one], the Ki is reported as under 10 nM. With Cn1cc(-c2cnc3ccn4cc(-c5c(F)cccc5Cl)nc4c3n2)cn1 [Example 14, 9-(2-Chloro-6-fluorophenyl)-2-(1-methyl-1H-pyrazol-4-yl)imidazo[1′,2′:1,2]pyrido[3,4-b]pyrazine] the Ki was 10 to 100 nM. Work on CN(C)S(=O)(=O)N1CCC(n2cc(-c3cnc4ccn5cc(-c6c(Cl)cccc6Cl)nc5c4c3)cn2)C1 (stereo not shown) [Example 51, 3-(4-(2-(2,6-Dichlorophenyl)imidazo[2,1-f][1,6]naphthyridin-9-yl)-1H-pyrazol-1-yl)-N,N-dimethylpyrrolidine-1-sulfonamide] yielded a Ki of under 10 nM. Work on Cc1cccc(F)c1-c1nc2c3nc(-c4cnn(C)c4)cnc3ccc2n1C [Example 18, 2-(2-Fluoro-6-methylphenyl)-3-methyl-8-(1-methyl-1H-pyrazol-4-yl)-3H-imidazo[4,5-f]quinoxaline] yielded a Ki of 10 to 100 nM. In the case of O=C(N1CCOCC1)N1CC[C@H](n2cc(-c3cnc4ccn5c(CO)c(-c6c(Cl)cccc6Cl)nc5c4c3)cn2)C1 [Example 57, (S)-(3-(4-(2-(2,6-Dichlorophenyl)-3-(hydroxymethyl)imidazo[2,1-f][1,6]naphthyridin-9-yl)-1H-pyrazol-1-yl)pyrrolidin-1-yl)(morpholino)methanone], the Ki is reported as under 10 nM. In the case of Cn1cc(-c2cnc3ccn4c(-c5ccco5)c(-c5ccccc5Cl)nc4c3c2)cn1 [Example 6, 2-(2-Chlorophenyl)-3-(furan-2-yl)-9-(1-methyl-1H-pyrazol-4-yl)imidazo[2,1-f][1,6]naphthyridine], the Ki is reported as 10 to 100 nM. OCc1c(-c2c(Cl)cccc2Cl)nc2c3cc(-c4cnn(CC(F)(F)F)c4)cnc3ccn12 [Example 81, (2-(2,6-Dichlorophenyl)-9-(1-(2,2,2-trifluoroethyl)-1H-pyrazol-4-yl)imidazo[2,1-f][1,6]naphthyridin-3-yl)methanol] gave a Ki of under 10 nM. Cc1cc(CO)ccc1-c1nc2c3cc(-c4cnn(C)c4)cnc3ccn2c1C [Example 30, (3-Methyl-4-(3-methyl-9-(1-methyl-1H-pyrazol-4-yl)imidazo[2,1-f][1,6]naphthyridin-2-yl)phenyl)methanol] showed a Ki of 10 to 100 nM. C=CC(=O)Nc1cccc(-c2nc3c4cc(-c5cnn(C)c5)cnc4ccn3c2C)c1 [Example 35, N-(3-(3-Methyl-9-(1-methyl-1H-pyrazol-4-yl)imidazo[2,1-f][1,6]naphthyridin-2-yl)phenyl)acrylamide] was tested, and the Ki was 10 to 100 nM. OCCn1cc(-c2cnc3ccn4c(CO)c(-c5c(Cl)cccc5Cl)nc4c3c2)cn1 [Example 83, 2-(4-(2-(2,6-Dichlorophenyl)-3-(hydroxymethyl)imidazo[2,1-f][1,6]naphthyridin-9-yl)-1H-pyrazol-1-yl)ethan-1-ol] showed a Ki of under 10 nM. Work on OCc1c(-c2c(Cl)cccc2Cl)nc2c3cc(-c4cnn(CCN5CCOCC5)c4)cnc3ccn12 [Example 82, (2-(2,6-Dichlorophenyl)-9-(1-(2-morpholinoethyl)-1H-pyrazol-4-yl)imidazo[2,1-f][1,6]naphthyridin-3-yl)methanol] yielded a Ki of under 10 nM. CC(=O)N1CC[C@H](n2cc(-c3cnc4ccn5c(CO)c(-c6ccccc6Cl)nc5c4c3)cn2)C1 [Example 64, (S)-1-(3-(4-(2-(2-Chlorophenyl)-3-(hydroxymethyl)imidazo[2,1-f][1,6]naphthyridin-9-yl)-1H-pyrazol-1-yl)pyrrolidin-1-yl)ethan-1-one] showed a Ki of under 10 nM.
